# Measured values from US20250017914A1, “6-AZA-QUINOLINE DERIVATIVES AND RELATED USES” (Black Diamond Therapeutics, Inc., priority 2021, published 2025).
# Biological target: T1, BaF3 BRAF-KIAA1549 fusion cells (Homo sapiens, UniProt P15056)
# T1 construct: The BRAF-KIAA1549 fusion mutant was subcloned into pMXs-IRES-Blasticidin (RTV-016, Cell Biolabs, San Diego, CA); No tag given; Q9HCM3 (UPF0606 protein KIAA1549)
# Assay: BaF3 BRAF-KIAA1549 fusion cell proliferation assay (CellTiterGlo, 96 hours)
# Assay type: cell-based
# Details: Table A1
# Procedure: Retroviral Production: The BRAF-KIAA1549 fusion mutant was subcloned into pMXs-IRES-Blasticidin (RTV-016, Cell Biolabs, San Diego, CA). Retrovirus was produced by transfection of HEK 293T cells with the retroviral BRAF mutant expression vector pMXs-IRES-Blasticidin (RTV-016, Cell Biolabs), pCMV-Gag-Pol vector and pCMV-VSV-G-Envelope vector. Briefly, HEK 293T cells were plated in Poly-D-lysine coated 6-well plate (2.5×10^5 cells per well) and incubated overnight. The next day, retroviral plasmids (1 μg of BRAF-KIAA fusion mutant, 0.32 μg of pCMV-Gag-Pol and 0.165 μg pCMV-VSV-G) were mixed in 300 μL of Optimem (31985, Life Technologies). The mixture was incubated at room temperature for 5 minutes and then added to Optimem containing transfection reagent Lipofectamine (11668, Invitrogen) and incubated for 20 minutes. The mixture was then added dropwise to HEK 293T cells. The next day the medium was replaced with fresh culture medium and retrovirus was harvested at 24 hours.
# Generation of BRAF-KIAA1549 fusion stable cell line: BaF3 cells were plated in V-bottom 96 well plate (COSTAR #3894) in 80 μL of RPMI/10% FBS and 0.01 ng/mL mouse IL-3, supplemented with 8 μg/mL polybrene (4×10^4 cells/well). Cells were transduced with 20 μL of BRAF-KIAA1549 fusion viral supernatant by centrifuging for 30 minutes at 1000 rpm. Cells were placed in a 37° C. incubator overnight. Next day 100 μL of RPMI/10% FBS and 0.01 ng/mL mouse IL-3 was added. After 24 hours, 100 μL of cells were transferred to a 24 well plate containing 900 μL of RPM/10% FBS and 15 μg/mL Blasticidin. Contents of the 24 well plate were sampled for cell viability via CellTiterGlo (Promega) over a 2-week period.
# Assay for cell proliferation: BaF3 BRAF-KIAA1549 fusion cells were resuspended at 1.5×10^5 c/mL in RPMI containing 10% Heat Inactivated FBS, 1% L-glutamine and dispensed in duplicate (7×10^4 c/well) into 384 well plates. To determine the effect of compound on cell proliferation, BaF3 BRAF-KIAA1549 fusion cells were incubated for 96 hours in the presence of vehicle control (DMSO) or compound at varying concentrations. Inhibition of cell growth was determined by luminescent quantification (Envision by Perkin Elmer) of intracellular ATP content using CellTiterGlo (Promega), according to the protocol provided by the manufacturer. To determine the IC50 values, the vehicle-treated cells were normalized as viable cells and analyzed using the CDD Vault, Collaborative Drug Discovery, Burlingame, CA (the Levenberg-Marquardt algorithm; Levenberg, K., […]; Marquardt, D., 1963).
# Tables A1 and A2 assign each compound a code for potency in the BaF3 BRAF-KIAA1549 fusion cell proliferation assay: A, B, C, or D. According to the code, A represents an IC50 value <20 nM; B represents an IC50 value ≥20 nM and <100 nM; C represents an IC50 value ≥100 nM and <500 nM; and D represents an IC50 value ≥500 nM.
# T1 sequence (P15056 whole entry, change not shown, the tested form may be a part): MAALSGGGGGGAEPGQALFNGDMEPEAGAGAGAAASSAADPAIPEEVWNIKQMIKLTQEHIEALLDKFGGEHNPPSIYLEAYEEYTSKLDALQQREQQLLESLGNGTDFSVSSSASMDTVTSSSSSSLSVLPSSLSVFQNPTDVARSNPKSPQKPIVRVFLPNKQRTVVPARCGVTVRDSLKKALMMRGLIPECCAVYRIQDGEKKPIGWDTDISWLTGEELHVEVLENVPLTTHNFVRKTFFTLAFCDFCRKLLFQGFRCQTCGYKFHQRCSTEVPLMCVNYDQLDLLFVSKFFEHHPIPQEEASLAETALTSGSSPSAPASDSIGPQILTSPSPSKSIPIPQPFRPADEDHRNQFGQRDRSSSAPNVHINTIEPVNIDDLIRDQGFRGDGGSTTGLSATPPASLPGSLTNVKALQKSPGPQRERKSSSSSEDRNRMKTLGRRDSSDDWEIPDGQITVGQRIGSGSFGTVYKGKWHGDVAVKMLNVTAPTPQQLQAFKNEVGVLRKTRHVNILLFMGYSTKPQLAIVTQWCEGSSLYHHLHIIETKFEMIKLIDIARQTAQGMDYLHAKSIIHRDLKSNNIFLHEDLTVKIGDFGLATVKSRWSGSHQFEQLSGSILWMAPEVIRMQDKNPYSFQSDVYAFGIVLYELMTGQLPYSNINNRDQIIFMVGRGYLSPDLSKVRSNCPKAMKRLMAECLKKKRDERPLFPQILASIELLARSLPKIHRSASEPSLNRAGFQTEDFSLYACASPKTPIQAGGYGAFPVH
row,GI50 [nM],SMILES
1,20 to 100,"CNc1cc2ncc(-c3cc(NC(=O)c4cc(C5(C#N)CCC5)ccn4)ccc3C)cc2cn1 [Compound 15, 4-(1-Cyanocyclobutyl)-N-(4-methyl-3-(7-(methylamino)-1,6-naphthyridin-3-yl)phenyl)picolinamide]"
2,20 to 100,"CNc1cc2ncc(-c3cc(C(=O)Nc4cc(C(C)(C)C#N)ccn4)ccc3C)cc2cn1 [Compound 53, N-(4-(2-cyanopropan-2-yl)pyridin-2-yl)-4-methyl-3-(7-(methylamino)-1,6-naphthyridin-3-yl)benzamide]"
3,< 20,"CNc1cc2ncc(-c3cc(NC(=O)c4cc(C5(C#N)CC5)ccn4)cnc3C)cc2cn1 [Compound 32, 4-(1-Cyanocyclopropyl)-N-(6-methyl-5-(7-(methylamino)-1,6-naphthyridin-3-yl)pyridin-3-yl)picolinamide]"
4,20 to 100,"CCNc1cc2ncc(-c3cc(NC(=O)c4ccnc(C5(F)CC5)c4)ccc3C)cc2cn1 [Compound 153, N-(3-(7-(ethylamino)-1,6-naphthyridin-3-yl)-4-methylphenyl)-2-(1-fluorocyclopropyl)isonicotinamide]"
5,100 to 500,"CNc1cc2ncc(-c3cc(F)cc(NC(=O)c4cc(C(C)(C)C#N)ccn4)c3)cc2cn1 [Compound 47, 4-(2-Cyanopropan-2-yl)-N-(3-fluoro-5-(7-(methylamino)-1,6-naphthyridin-3-yl)phenyl)picolinamide]"
6,< 20,"Cc1ccc(NC(=O)c2ccnc(C3(F)CC3)c2)cc1-c1cnc2cc(N)ncc2c1 [Compound 154, N-(3-(7-amino-1,6-naphthyridin-3-yl)-4-methylphenyl)-2-(1-fluorocyclopropyl)isonicotinamide]"
7,20 to 100,"CNc1cc2ncc(-c3cc(NC(=O)c4cc(C(C)(C)F)ccn4)cnc3C)cc2cn1 [Compound 65, 4-(2-Fluoropropan-2-yl)-N-(6-methyl-5-(7-(methylamino)-1,6-naphthyridin-3-yl)pyridin-3-yl)picolinamide]"
8,< 20,"CNc1cc2ncc(-c3cc(NC(=O)c4ccnc(C(F)(F)F)c4)cnc3C)cc2cn1 [Compound 27, N-(6-Methyl-5-(7-(methylamino)-1,6-naphthyridin-3-yl)pyridin-3-yl)-2-(trifluoromethyl)isonicotinamide]"
9,< 20,"CNc1cc2ncc(-c3cc(NC(=O)c4nccc(C(F)(F)F)c4F)cnc3C)cc2cn1 [Compound 52, 3-Fluoro-N-(6-methyl-5-(7-(methylamino)-1,6-naphthyridin-3-yl)pyridin-3-yl)-4-(trifluoromethyl)picolinamide]"
10,20 to 100,"CNc1cc2ncc(-c3cc(NC(=O)c4ccnc(C(C)(C)C#N)c4)ccc3C)cc2cn1 [Compound 56, 2-(2-Cyanopropan-2-yl)-N-(4-methyl-3-(7-(methylamino)-1,6-naphthyridin-3-yl)phenyl)isonicotinamide]"

# Same assay, conditions: Table A2
row,GI50 [nM],SMILES
1,20 to 100,"CNc1cc2ncc(-c3cc(NC(=O)c4cnc5n4CC(C(F)F)CC5)ccc3C)cc2cn1 (stereo not drawn) [Compound 238, 6-(difluoromethyl)-N-(4-methyl-3-(7-(methylamino)-1,6-naphthyridin-3-yl)phenyl)-5,6,7,8-tetrahydroimidazo[1,2-a]pyridine-3-carboxamide]"
2,< 20,"CNc1cc2ncc(-c3cc(NC(=O)c4cc(C(NC)C(F)(F)F)ccn4)ccc3C)cc2cn1 (stereo not drawn) [Compound 203, N-(4-methyl-3-(7-(methylamino)-1,6-naphthyridin-3-yl)phenyl)-4-(2,2,2-trifluoro-1-(methylamino)ethyl)picolinamide]"
3,20 to 100,"CNc1cc2ncc(-c3cc(NC(=O)c4noc5c4C[C@H](C)CC5)ccc3C)cc2cn1 (single isomer, unassigned) [Compound 237]"
4,100 to 500,"CNc1cc2ncc(-c3cc(NC(=O)N(C)c4ccnc(C(F)F)c4)cnc3C)cc2cn1 [Compound 190, 1-(2-(difluoromethyl)pyridin-4-yl)-1-methyl-3-(6-methyl-5-(7-(methylamino)-1,6-naphthyridin-3-yl)pyridin-3-yl)urea]"
5,≥ 500,"CNc1cc2ncc(-c3cc(NC(=O)c4cccc5c4CCCC5=O)cnc3C)cc2cn1 [Compound 198, N-(6-methyl-5-(7-(methylamino)-1,6-naphthyridin-3-yl)pyridin-3-yl)-5-oxo-5,6,7,8-tetrahydronaphthalene-1-carboxamide]"
6,20 to 100,"CNc1cc2ncc(-c3cc(NC(=O)c4cnc5n4CC(C)CC5)cnc3C)cc2cn1 (stereo not drawn) [Compound 225, 6-methyl-N-(6-methyl-5-(7-(methylamino)-1,6-naphthyridin-3-yl)pyridin-3-yl)-5,6,7,8-tetrahydroimidazo[1,2-a]pyridine-3-carboxamide]"
7,100 to 500,"CNc1cc2ncc(-c3cc(NC(=O)c4cnc5n4C(C)CCC5)ccc3C)cc2cn1 (stereo not drawn) [Compound 205, 5-methyl-N-(4-methyl-3-(7-(methylamino)-1,6-naphthyridin-3-yl)phenyl)-5,6,7,8-tetrahydroimidazo[1,2-a]pyridine-3-carboxamide]"
8,100 to 500,"CNc1cc2ncc(-c3cc(NC(=O)c4noc5c4CCCC5)ccc3C)cc2cn1 [Compound 228, N-(4-methyl-3-(7-(methylamino)-1,6-naphthyridin-3-yl)phenyl)-4,5,6,7-tetrahydrobenzo[d]isoxazole-3-carboxamide]"
9,< 20,"Cc1ncc(NC(=O)c2cc(C(F)(F)F)ccn2)cc1-c1ccc2c3c(ncc2c1)NC(=O)C3 [Compound 274, N-(6-methyl-5-(2-oxo-2,3-dihydro-1H-pyrrolo[2,3-c]isoquinolin-7-yl)pyridin-3-yl)-4-(trifluoromethyl)picolinamide]"
10,20 to 100,"CNc1cc2ncc(-c3cc(NC(=O)c4cnc5n4C[C@@H](C)CC5)ccc3C)cc2cn1 (single isomer, unassigned) [Compound 231]"
11,20 to 100,"CNc1cc2ncc(-c3cc(NC(=O)c4nccc(C(C)C)c4Cl)cnc3C)cc2cn1 [Compound 256, 3-chloro-4-isopropyl-N-(6-methyl-5-(7-(methylamino)-1,6-naphthyridin-3-yl)pyridin-3-yl)picolinamide]"
12,≥ 500,"CNc1cc2ncc(-c3cc(C(=O)Nc4cc(C(C)(C)C#N)ccn4)cnn3)cc2cn1 [Compound 213, N-(4-(2-cyanopropan-2-yl)pyridin-2-yl)-6-(7-(methylamino)-1,6-naphthyridin-3-yl)pyridazine-4-carboxamide]"
13,20 to 100,"CNc1cc2c(C#N)cc(-c3cc(NC(=O)c4ccnc(C5(F)CC5)c4)ccc3C)cc2cn1 [Compound 272, N-(3-(5-cyano-3-(methylamino)isoquinolin-7-yl)-4-methylphenyl)-2-(1-fluorocyclopropyl)isonicotinamide]"
14,≥ 500,"CNc1ncc2cc(-c3cc(NC(=O)c4ccnc(C(C)(C)C#N)c4)cnc3C)cnc2c1Cl [Compound 270, N-[5-[8-chloro-7-(methylamino)-1,6-naphthyridin-3-yl]-6-methyl-3-pyridyl]-2-(1-cyano-1-methyl-ethyl)pyridine-4-carboxamide]"
15,20 to 100,"CNc1cc2ncc(-c3cc(NC(=O)c4n[nH]c5c4C[C@H]4C[C@@H]54)cnc3C)cc2cn1 [Compound 253, (4aR,5aR)—N-(6-methyl-5-(7-(methylamino)-1,6-naphthyridin-3-yl)pyridin-3-yl)-4,4a,5,5a-tetrahydro-1H-cyclopropa[4,5]cyclopenta[1,2-c]pyrazole-3-carboxamide]"
16,≥ 500,"CNc1cc2ncc(-c3c(C)ncc(NC(=O)c4cc(C(C)(C)C#N)ccn4)c3Cl)cc2cn1 [Compound 197, N-[4-chloro-6-methyl-5-[7-(methylamino)-1,6-naphthyridin-3-yl]-3-pyridyl]-4-(1-cyano-1-methyl-ethyl)pyridine-2-carboxamide]"
17,20 to 100,"CNc1cc2ncc(-c3cc(NC(=O)c4ccnc(C(C)(C)C#N)c4)c(F)cc3C)cc2cn1 [Compound 217, 2-(2-cyanopropan-2-yl)-N-(2-fluoro-4-methyl-5-(7-(methylamino)-1,6-naphthyridin-3-yl)phenyl)isonicotinamide]"
